Results: patent US9617282B2, “Macrocyclic compounds as IRAK4 inhibitors for the treatment of inflammatory diseases” (BIOGEN MA INC., priority 2013, dated 2017)

What was measured:
A549 cells = test: Cell-based assay, IL-6 ELISA quantification in IL-1 beta stimulated A549 cells; conditions: 2 ng/ml human IL-1 beta overnight, class symbols, read-out: Celluar Data EC50
Procedure: The cell-based assays is based on IL-6 ELISA quantification. Briefly, A549 cells are cultured in DMEM with 10% FBS medium. When cells reach 80% confluence they are trypsin treated and seeded in 96-well plate at 2.5×10^4 cells/well. Then, 20 ul of compound serial dilutions (starting at 10 uM, 10 points) are added to the cell plate; incubate for 1 hour at 37 C and stimulated with 2 ng/ml human IL-1 beta 37 C overnight. The next day 100 ul of cell supernatant per well are analyzed on a Human IL-6 Quantikine ELISA kit from R&D Systems.

IRAK4 = IRAK4 (Homo sapiens (Human), UniProt Q9NWZ3); test: IRAK-4 biochemical kinase assay, AlphaScreen format; conditions: 1 nM IRAK4, 1.6 μM peptide, 10 μM ATP, 3.5 h at RT; class symbols
Procedure: The biochemical assay is in a AlphaScreen format. The kinase reaction is based on the IRAK-4 phosphorylation of a biotin labeled peptide. The phosphopeptide is incubated with anti-phosphothreonine antibody as well as streptavidin- and protein A-coated beads. Binding of the protein-A coated beads to the antibody and the streptavidin beads to the peptide, leads to an energy transfer from one bead to the other, ultimately producing a luminescent/fluorescent signal.

IRAK4, sequence (Q9NWZ3 whole entry, species assumed): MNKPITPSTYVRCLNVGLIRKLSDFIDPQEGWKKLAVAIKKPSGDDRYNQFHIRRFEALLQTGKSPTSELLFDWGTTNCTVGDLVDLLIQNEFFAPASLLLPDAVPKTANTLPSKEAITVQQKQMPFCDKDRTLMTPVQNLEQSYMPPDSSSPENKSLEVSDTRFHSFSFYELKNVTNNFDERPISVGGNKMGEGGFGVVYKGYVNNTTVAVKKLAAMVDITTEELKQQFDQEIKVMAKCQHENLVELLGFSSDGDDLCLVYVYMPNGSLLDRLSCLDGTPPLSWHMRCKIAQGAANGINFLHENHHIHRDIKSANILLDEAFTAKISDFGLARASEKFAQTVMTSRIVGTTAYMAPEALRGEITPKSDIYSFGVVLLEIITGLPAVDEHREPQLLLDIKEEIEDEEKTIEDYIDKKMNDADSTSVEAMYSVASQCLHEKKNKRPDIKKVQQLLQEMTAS

| Structure (SMILES) | EC50 (A549 cells) [µM] | IC50 (IRAK4) [µM] |
| --- | --- | --- |
| O=C1Nc2ccccc2OCCCCOCc2cc(ccn2)-c2nc1co2 [Compound 4] | > 10 | < 0.1 |
| O=C1Nc2cn(CCN3CCOCC3)nc2C(=O)NCCOCCOc2cc(ccn2)-c2nc1cs2 [Example 112] | < 10 | < 0.1 |
| Cn1cc2c(n1)C(=O)NCCOCCCn1cc(cn1)-c1nc(cs1)C(=O)N2 [Example 135] | < 1 | < 0.1 |
| O=C1Nc2cn(C3CCCCO3)nc2C(=O)NCCOCCOc2cc(ccn2)-c2nc1cs2 (stereo not drawn) [Example 110] | < 10 | < 0.1 |
| O=C1Nc2cn(C3CCOCC3)nc2C(=O)NCCOCCCCc2cc(ccn2)-c2nc1cs2 [Example 218] | < 10 | < 0.1 |
| O=C1Nc2cn(CCN3CCNCC3)nc2C(=O)NCCOCCNc2cc(ccn2)-c2nc1cs2 [Example 145] | < 10 | < 0.1 |
| O=C1Nc2ccccc2OC(CO)CCCCNc2cc(ccn2)-c2nc1co2 (stereo not drawn) [Compound 12] | < 1 | < 0.1 |
| CC(C)(C)OC(=O)N1CCN(CCn2cc3c(n2)C(=O)NCCOCCNc2cc(ccn2)-c2nc(cs2)C(=O)N3)CC1 [Example 144] | < 10 | < 0.1 |
| CC(C)(C)OC(=O)N1CCC(Cn2cc3c(n2)C(=O)NCCOCCOc2cc(ccn2)-c2nc(cs2)C(=O)N3)CC1 [Example 159] | < 10 | < 0.1 |
| O=C1Nc2cn(C3CCOCC3)nc2C(=O)NCCOCCCc2cc(ccn2)-c2nc1cs2 [Compound 47] | < 1 | < 0.1 |
| CN1CCN(CCn2cc3c(n2)C(=O)NCCOCCNc2cc(ccn2)-c2nc(cs2)C(=O)N3)CC1 [Example 143] | < 10 | < 0.1 |
| O=C1Nc2cn(C3CCOCC3)nc2C(=O)NCCCCCc2cc(ccn2)-c2nc1co2 [Compound 40] | < 10 | < 0.1 |
| O=C1Nc2cn(C3CCOCC3)nc2C(=O)NCCCOCCOc2cc(ccn2)-c2nc1cs2 [Example 121] | < 10 | < 0.1 |
| O=C1Nc2cn(CC3CCNCC3)nc2C(=O)NCCOCCOc2cc(ccn2)-c2nc1cs2 [Example 160] | > 10 | < 1 |
| O=C1Nc2cn(CCN3CCCCC3)nc2C(=O)NCCOCCNc2cc(ccn2)-c2nc1cs2 [Example 119] | < 1 | < 0.1 |
| O=C1NC[C@@H]2CC[C@@H](C2)OCCCNc2cc(ccn2)-c2nc1cs2 [Example 83] | < 10 | < 0.1 |
| Cn1cc2c(n1)C(=O)NCCOCCCc1cc(ccn1)-c1nc(cs1)C(=O)N2 [Compound 48] | < 10 | < 0.1 |
| O=C1Nc2cn(CCN3CCOCC3)nc2C(=O)NCCOCCNc2cc(ccn2)-c2nc1cs2 [Example 118] | < 1 | < 0.1 |
| O=C1Nc2ccccc2OCCCCCCn2cc(cn2)-c2nc1co2 [Compound 7] | < 10 | < 0.1 |
| Cn1cc2c(n1)C(=O)NCCOCCCCc1cc(ccn1)-c1nc(cs1)C(=O)N2 [Example 217] | < 10 | < 0.1 |
| Cn1cc2c(n1)C(=O)NCCCCCCCCNc1cc(ccn1)-c1nc(co1)C(=O)N2 [Compound 29] | < 1 | < 0.1 |
| CN(C)C(=O)Cn1cc2c(n1)C(=O)NCCOCCOc1cc(ccn1)-c1nc(cs1)C(=O)N2 [Example 166] | > 10 | < 1 |

| Structure (SMILES) | EC50 (A549 cells) [µM] | IC50 (IRAK4) [µM] |
| --- | --- | --- |
| CN(C)CCn1cc2c(n1)C(=O)NCCOCCOc1cc(ccn1)-c1nc(cs1)C(=O)N2 [Example 111] | > 10 | < 1 |
| O=C1Nc2ccncc2C(=O)NCCOCCOc2cc(ccn2)-c2nc1cs2 [Example 129] | < 1 | < 0.1 |
| O=C1Nc2cn(C3CCOCC3)nc2C(=O)NCCOCCc2cc(ccn2)-c2nc1cs2 [Example 134] | > 10 | < 0.1 |
| O=C(O)Cn1cc2c(n1)C(=O)NCCOCCOc1cc(ccn1)-c1nc(cs1)C(=O)N2 [Example 146] | > 10 | < 10 |
| CC(C)(C)OC(=O)N1CCN(CCn2cc3c(n2)C(=O)NCCOCCOc2cc(ccn2)-c2nc(cs2)C(=O)N3)CC1 [Example 114] | > 10 | < 0.1 |
| CN1CCC(CCn2cc3c(n2)C(=O)NCCOCCOc2cc(ccn2)-c2nc(cs2)C(=O)N3)CC1 [Example 153] | > 10 | < 0.1 |
| CC(C)(C)OC(=O)Cn1cc2c(n1)C(=O)NCCOCCOc1cc(ccn1)-c1nc(cs1)C(=O)N2 [Example 137] | > 10 | < 0.1 |
| CN1CCN(CCn2cc3c(n2)C(=O)NCCOCCOc2cc(ccn2)-c2nc(cs2)C(=O)N3)CC1 [Example 113] | < 10 | < 0.1 |
| O=C1Nc2cn(CCN3CCCCC3)nc2C(=O)NCCOCCOc2cc(ccn2)-c2nc1cs2 [Example 116] | > 10 | < 0.1 |
| Cn1cc2c(n1)C(=O)NCCCCCc1cc(ccn1)-c1nc(cs1)C(=O)N2 [Example 96] | < 10 | < 0.1 |
| Cn1cc2c(n1)C(=O)NCCOCCOc1cc(ccn1)-c1nc(cs1)C(=O)N2 [Compound 43] | < 10 | < 0.1 |
| Cn1cc2c(n1)C(=O)NCCCCNc1cc(ccn1)-c1nc(cs1)C(=O)N2 [Example 131] | < 1 | < 0.1 |
| CC(=O)N1CCCc2cc(ccn2)-c2nc(cs2)C(=O)Nc2cn(C3CCOCC3)nc2C(=O)NCC1 [Example 170] | < 1 | < 0.1 |
| O=C1Nc2cn(C3CCOCC3)nc2C(=O)NCCCCCc2cc(ccn2)-c2nc1cs2 [Example 95] | < 1 | < 0.1 |
| Cn1cc2c(n1)C(=O)NCCCOCCOc1cc(ccn1)-c1nc(cs1)C(=O)N2 [Example 120] | < 1 | < 0.1 |
| CN1CCN(CCn2ncc3c2C(=O)NCCOCCNc2cc(ccn2)-c2nc(cs2)C(=O)N3)CC1 [Example 142] | > 10 | < 1 |
| O=C1Nc2cn(CCN3CCNCC3)nc2C(=O)NCCOCCOc2cc(ccn2)-c2nc1cs2 [Example 115] | < 10 | < 0.1 |
| CC(C)(C)OC(=O)N1CCN(CCn2ncc3c2C(=O)NCCOCCOc2cc(ccn2)-c2nc(cs2)C(=O)N3)CC1 [Example 108] | > 10 | < 1 |
| Cn1cc2c(n1)C(=O)NCCOCCCOc1cc(ccn1)-c1nc(cs1)C(=O)N2 [Example 122] | < 1 | < 0.1 |
| O=C1Nc2cnn(CCN3CCNCC3)c2C(=O)NCCOCCOc2cc(ccn2)-c2nc1cs2 [Example 109] | > 10 | < 10 |
| O=C1NC[C@H]2CC[C@@H](C2)OCCCNc2cc(ccn2)-c2nc1cs2 [Example 82] | < 10 | < 1 |
| CN(C)CCn1cc2c(n1)C(=O)NCCOCCNc1cc(ccn1)-c1nc(cs1)C(=O)N2 [Example 117] | < 10 | < 0.1 |

| Structure (SMILES) | EC50 (A549 cells) [µM] | IC50 (IRAK4) [µM] |
| --- | --- | --- |
| CC(C)(C)OC(=O)N1CCC(n2cc3c(n2)C(=O)NCCOCCOc2cc(ccn2)-c2nc(cs2)C(=O)N3)CC1 [Example 164] | < 10 | < 0.1 |
| O=C1Nc2cn(C3CCOCC3)nc2C(=O)NCCCOCCOc2cc(ccn2)-c2nc1co2 [Example 125] | < 1 | < 0.1 |
| O=C1Nc2cn(C3CCOCC3)nc2C(=O)NCCOCCNc2cc(ccn2)-c2nc1cs2 [Compound 46] | < 1 | < 0.1 |
| O=C1Nc2cn(CCC3CCNCC3)nc2C(=O)NCCOCCOc2cc(ccn2)-c2nc1cs2 [Example 155] | > 10 | < 0.1 |
| O=C1Nc2ccccc2C(=O)NCCOCCOc2cc(ccn2)-c2nc1cs2 [Example 127] | < 1 | < 0.1 |
| O=C(O)CCn1cc2c(n1)C(=O)NCCOCCOc1cc(ccn1)-c1nc(cs1)C(=O)N2 [Example 149] | > 10 | < 1 |
| O=C1Nc2ccccc2OCCCCCCc2cc(ccn2)-c2nc1co2 [Compound 5] |  | < 0.1 |
| CCN1CCCCCCOc2cc(ccn2)-c2nc(co2)C1=O [Compound 53] |  | < 0.1 |
| CCOC(=O)CC(=O)N1CCCc2cc(ccn2)-c2nc(cs2)C(=O)Nc2cn(C3CCOCC3)nc2C(=O)NCC1 [Example 189] |  | < 0.1 |
| O=C1Nc2cn(C3CCOCC3)nc2C(=O)NCCNCCCc2cc(ccn2)-c2nc1cs2 [Example 168] |  | < 0.1 |
| CN(C)C1CCN(C(=O)c2ccc3c(c2)NC(=O)c2csc(n2)-c2ccnc(c2)NCCCCCO3)C1 (stereo not drawn) [Compound 21] |  | < 0.1 |
| CCN1CCCCCCCCNC(=O)c2csc(n2)-c2ccnc1c2 [Example 67] |  | < 1 |
| CC(C)(C)OC(=O)N1CCNC(=O)c2nn(C3CCOCC3)cc2NC(=O)c2csc(n2)-c2ccnc(c2)OCC1 [Example 167] |  | < 1 |
| O=C1Nc2cn(C3CCOCC3)nc2C(=O)NCCCCCOc2cc(ccn2)-c2nc1co2 [Compound 38] |  | < 0.1 |
| CN1CCCCNC(=O)c2nn(C3CCOCC3)cc2NC(=O)c2csc(n2)-c2ccnc1c2 [Example 224] |  | < 0.1 |
| O=C(CCC1NC(=O)c2nn(C3CCOCC3)cc2NC(=O)c2csc(n2)-c2ccnc(c2)CCCNC1=O)NCc1ccccc1 (stereo not drawn) [Example 193] |  | < 1 |
| O=C1Nc2cn(C3CCOCC3)nc2C(=O)NCCOCCOc2cc(ccn2)-c2csc1n2 [Example 214] |  | < 1 |
| O=C1NCCOC2CCC(CC2)CNc2cc(ccn2)-c2nc1cs2 [Example 88] |  | < 10 |
| CN(C)CCNC(=O)c1ccc2c(c1)OCCCCCNc1cc(ccn1)-c1nc(cs1)C(=O)N2 [Compound 25] |  | < 0.1 |
| CN1CCN(CCn2ncc3c2C(=O)NCCOCCOc2cc(ccn2)-c2nc(cs2)C(=O)N3)CC1 [Example 141] |  | < 10 |
